Experiment: Pharmacokinetics / tissue uptake of 14C-HB in tumor-bearing mice
Assay type: in vivo, Balb/c mice
Excerpt: The excellent fluorescence properties of the hypocrellins and derivatives provide a valuable tool to monitor intracellular uptake and distribution kinetics by confocal laser scanning microscopy (CLSM). Each drug has unique properties of uptake and distribution (Miller et al 1995 a, b). The rate cells take up drug in humans […] can be determined using similar protocols as Liu et al 1995 and Miller et al., 1995 a or b). In vivo, the ideal time between i.v. injection or administration of the drug and light administration is preferably when tumor concentration of the photodynamic agent is optimal with respect to normal tissues, typically up to about 24 hours, but as long as 48 hours or more (Table 2).
Pharmacokinetics of ^14C-HB in Balb/c mice bearing the EMT6/Ed tumor in one flank. […] With respect to skin, the optimal therapeutic ratio for tumor occurs 2 hours following drug administration.

## ^14C-Hypocrellin B
Balb/c mice bearing EMT6/Ed tumor
  clearance from blood: rapid clearance
Bone, 0 Hours
  Tissue Uptake of ^14C-Hypocrellin B: 19,825 ± 2,300 dpm/g
Bone, 2 Hours
  Tissue Uptake of ^14C-Hypocrellin B: 3,955 ± 2,070 dpm/g
Bone, 24 Hours
  Tissue Uptake of ^14C-Hypocrellin B: 660 ± 215 dpm/g
Bone, 48 Hours
  Tissue Uptake of ^14C-Hypocrellin B: 1,125 ± 310 dpm/g
Brain, 0 Hours
  Tissue Uptake of ^14C-Hypocrellin B: 17,560 ± 560 dpm/g
Brain, 2 Hours
  Tissue Uptake of ^14C-Hypocrellin B: 3,855 ± 170 dpm/g
Brain, 24 Hours
  Tissue Uptake of ^14C-Hypocrellin B: 2,840 ± 275 dpm/g
Brain, 48 Hours
  Tissue Uptake of ^14C-Hypocrellin B: 845 ± 90 dpm/g
Fat, 0 Hours
  Tissue Uptake of ^14C-Hypocrellin B: 20,550 ± 715 dpm/g
Fat, 2 Hours
  Tissue Uptake of ^14C-Hypocrellin B: 38,570 ± 5,610 dpm/g
Fat, 24 Hours
  Tissue Uptake of ^14C-Hypocrellin B: 19,550 ± 2,210 dpm/g
Fat, 48 Hours
  Tissue Uptake of ^14C-Hypocrellin B: 19,335 ± 2,335 dpm/g
Heart, 0 Hours
  Tissue Uptake of ^14C-Hypocrellin B: 113,920 ± 3,365 dpm/g
Heart, 2 Hours
  Tissue Uptake of ^14C-Hypocrellin B: 5,135 ± 910 dpm/g
Heart, 24 Hours
  Tissue Uptake of ^14C-Hypocrellin B: 7,835 ± 1,810 dpm/g
Heart, 48 Hours
  Tissue Uptake of ^14C-Hypocrellin B: 2,325 ± 245 dpm/g
Ileum, 0 Hours
  Tissue Uptake of ^14C-Hypocrellin B: 45,400 ± 3,600 dpm/g
Ileum, 2 Hours
  Tissue Uptake of ^14C-Hypocrellin B: 20,280 ± 2,850 dpm/g
Ileum, 24 Hours
  Tissue Uptake of ^14C-Hypocrellin B: 5,800 ± 645 dpm/g
Ileum, 48 Hours
  Tissue Uptake of ^14C-Hypocrellin B: 2,840 ± 595 dpm/g
Kidney, 0 Hours
  Tissue Uptake of ^14C-Hypocrellin B: 67,344 ± 950 dpm/g
Kidney, 2 Hours
  Tissue Uptake of ^14C-Hypocrellin B: 20,855 ± 3,955 dpm/g
Kidney, 24 Hours
  Tissue Uptake of ^14C-Hypocrellin B: 12,050 ± 1,845 dpm/g
Kidney, 48 Hours
  Tissue Uptake of ^14C-Hypocrellin B: 4,535 ± 765 dpm/g
Liver, 0 Hours
  Tissue Uptake of ^14C-Hypocrellin B: 394,190 ± 7,540 dpm/g
Liver, 2 Hours
  Tissue Uptake of ^14C-Hypocrellin B: 24,620 ± 4,885 dpm/g
Liver, 24 Hours
  Tissue Uptake of ^14C-Hypocrellin B: 22,495 ± 4,440 dpm/g
Liver, 48 Hours
  Tissue Uptake of ^14C-Hypocrellin B: 9,215 ± 720 dpm/g
Lung, 0 Hours
  Tissue Uptake of ^14C-Hypocrellin B: 651,100 ± 42,668 dpm/g
Lung, 2 Hours
  Tissue Uptake of ^14C-Hypocrellin B: 8,580 ± 655 dpm/g
Lung, 24 Hours
  Tissue Uptake of ^14C-Hypocrellin B: 3870 ± 525 dpm/g
Lung, 48 Hours
  Tissue Uptake of ^14C-Hypocrellin B: 2,975 ± 360 dpm/g
Muscle, 0 Hours
  Tissue Uptake of ^14C-Hypocrellin B: 13,665 ± 600 dpm/g
Muscle, 2 Hours
  Tissue Uptake of ^14C-Hypocrellin B: 4,050 ± 940 dpm/g
Muscle, 24 Hours
  Tissue Uptake of ^14C-Hypocrellin B: 2,875 ± 560 dpm/g
Muscle, 48 Hours
  Tissue Uptake of ^14C-Hypocrellin B: 1,015 ± 205 dpm/g
Pancreas, 0 Hours
  Tissue Uptake of ^14C-Hypocrellin B: 32,010 ± 2,165 dpm/g
Pancreas, 2 Hours
  Tissue Uptake of ^14C-Hypocrellin B: 13,185 ± 12,055 dpm/g
Pancreas, 24 Hours
  Tissue Uptake of ^14C-Hypocrellin B: 32,390 ± 11,840 dpm/g
Pancreas, 48 Hours
  Tissue Uptake of ^14C-Hypocrellin B: 16,915 ± 3,845 dpm/g
Serum, 0 Hours
  Tissue Uptake of ^14C-Hypocrellin B: 69,975 ± 1,925 dpm/g
Serum, 2 Hours
  Tissue Uptake of ^14C-Hypocrellin B: 1,655 ± 170 dpm/g
Serum, 24 Hours
  Tissue Uptake of ^14C-Hypocrellin B: 1,020 ± 160 dpm/g
Serum, 48 Hours
  Tissue Uptake of ^14C-Hypocrellin B: 700 ± 240 dpm/g
Skin, 0 Hours
  Tissue Uptake of ^14C-Hypocrellin B: 14,970 ± 74 dpm/g
Skin, 2 Hours
  Tissue Uptake of ^14C-Hypocrellin B: 3,130 ± 221 dpm/g
Skin, 24 Hours
  Tissue Uptake of ^14C-Hypocrellin B: 2,700 ± 170 dpm/g
Skin, 48 Hours
  Tissue Uptake of ^14C-Hypocrellin B: 1,590 ± 250 dpm/g
Spleen, 0 Hours
  Tissue Uptake of ^14C-Hypocrellin B: 151,870 ± 9,395 dpm/g
Spleen, 2 Hours
  Tissue Uptake of ^14C-Hypocrellin B: 58,900 ± 4,205 dpm/g
Spleen, 24 Hours
  Tissue Uptake of ^14C-Hypocrellin B: 14,970 ± 3,215 dpm/g
Spleen, 48 Hours
  Tissue Uptake of ^14C-Hypocrellin B: 26,700 ± 11,105 dpm/g
Stomach, 0 Hours
  Tissue Uptake of ^14C-Hypocrellin B: 28,280 ± 145 dpm/g
Stomach, 2 Hours
  Tissue Uptake of ^14C-Hypocrellin B: 21,630 ± 3,345 dpm/g
Stomach, 24 Hours
  Tissue Uptake of ^14C-Hypocrellin B: 34,385 ± 8,795 dpm/g
Stomach, 48 Hours
  Tissue Uptake of ^14C-Hypocrellin B: 12,460 ± 975 dpm/g
Tumor, 0 Hours
  Tissue Uptake of ^14C-Hypocrellin B: 7,885 ± 270 dpm/g
Tumor, 2 Hours
  Tissue Uptake of ^14C-Hypocrellin B: 3,775 ± 400 dpm/g
Tumor, 24 Hours
  Tissue Uptake of ^14C-Hypocrellin B: 2,950 ± 80 dpm/g
Tumor, 48 Hours
  Tissue Uptake of ^14C-Hypocrellin B: 2,165 ± 470 dpm/g
Following drug administration
  time of optimal therapeutic ratio for tumor with respect to skin: 2 h

Reference: patent US6627664B2, “Perylenequinones for use as sonosensitizers” (Altachem Pharma Ltd., priority 2001, dated 2003)
